These results are taken from patent US20240092784A1, “CONDENSED HETEROCYCLIC COMPOUND” (NISSAN CHEMICAL CORPORATION, priority 2020, published 2024).

Counter-ions that a name gives are not always drawn.

human SPR, sequence (P35270 whole entry): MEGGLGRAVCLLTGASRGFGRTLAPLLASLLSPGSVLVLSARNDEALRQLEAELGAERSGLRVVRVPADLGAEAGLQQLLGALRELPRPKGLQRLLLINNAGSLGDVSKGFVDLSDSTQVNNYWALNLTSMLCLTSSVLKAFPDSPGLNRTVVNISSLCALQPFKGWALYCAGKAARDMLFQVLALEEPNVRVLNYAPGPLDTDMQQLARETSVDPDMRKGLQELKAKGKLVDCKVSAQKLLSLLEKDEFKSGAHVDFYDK

The first test has as its target human SPR (Homo sapiens (Human), UniProt P35270). Put plainly: Evaluation Example 2: Measurement of human SPR inhibitory activity (seven concentrations, sepiapterin absorbance at 420 nm). Format: biochemical. To be noted: Evaluation Example 2, seven concentrations 0.14 nM to 100 nM, 240 minutes at room temperature, read-out: IC50. In short, it runs like this:
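His-tagged full-length human SPR (1-261) was expressed in E. coli and the tag removed. Enzyme at 150 ng/mL in 100 mM Tris-HCl pH 7.5/0.01% BSA was mixed with compound (0.14–100 nM, seven points), 120 μM sepiapterin and 160 μM NADPH, both as added-solution concentrations. After 240 min at room temperature, remaining sepiapterin was read at 420 nm to give percent inhibition.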
For the molecule `CC(C)(C)Cn1c(=O)c(C(=O)NC2CC2)c(O)n2nc(-c3n[nH]cc3C(F)(F)F)cc12` [Synthesis Example 298, N-Cyclopropyl-7-hydroxy-4-neopentyl-5-oxo-2-(4-(trifluoromethyl)-1H-pyrazol-3-yl)-4,5-dihydropyrazolo[1,5-a]pyrimidine-6-carboxamide], the IC50 was determined as 3.11 nM.

As for `CC(C)Cn1c(=O)c(C(=O)NC2CC2)c(O)n2nc(N)c(/C=C/C(=O)N3CCC(F)(F)CC3)c12` [Synthesis Example 414, (E)-2-Amino-N-cyclopropyl-3-(3-(4,4-difluoropiperidin-1-yl)-3-oxoprop-1-en-1-yl)-7-hydroxy-4-isobutyl-5-oxo-4,5-dihydropyrazolo[1,5-a]pyrimidine-6-carboxamide hydrochloride], the IC50 turned out to be 0.7 nM.

With `CC(C)Cn1c(=O)c(C(=O)NC2CC2)c(O)n2ncc(/C=C/C(=O)N3CCC(O)CC3)c12` [compound 476, (E)-N-Cyclopropyl-7-hydroxy-3-(3-(4-hydroxypiperidin-1-yl)-3-oxoprop-1-en-1-yl)-4-isobutyl-5-oxo-4,5-dihydropyrazolo[1,5-a]pyrimidine-6-carboxamide], the IC50 stood at 0.75 nM.

As to `Cc1nn2c(O)c(C(=O)NC3CC3)c(=O)n(CC(C)C)c2c1/C=C/C(=O)N1CCC[C@@H]1C(F)F` [Synthesis Example 632, (R,E)-N-Cyclopropyl-3-(3-(2-(difluoromethyl)pyrrolidin-1-yl)-3-oxoprop-1-en-1-yl)-7-hydroxy-4-isobutyl-2-methyl-5-oxo-4,5-dihydropyrazolo[1,5-a]pyrimidine-6-carboxamide], the IC50 is 1.51 nM.

For the molecule `Nc1nn2c(O)c(C(=O)NC3CC3)c(=O)n(CC3CC3)c2c1/C=C/C(=O)N1CCOCC1` [Synthesis Example 419, (E)-2-Amino-N-cyclopropyl-4-(cyclopropylmethyl)-7-hydroxy-3-(3-morpholino-3-oxoprop-1-en-1-yl)-5-oxo-4,5-dihydropyrazolo[1,5-a]pyrimidine-6-carboxamide hydrochloride], the IC50 came to 0.83 nM.

As for `Cc1c(N)nn2c(O)c(C(=O)NC3CC3)c(=O)n(CC(C)(C)C)c12` [Synthesis Example 437, 2-Amino-N-cyclopropyl-7-hydroxy-3-methyl-4-neopentyl-5-oxo-4,5-dihydropyrazolo[1,5-a]pyrimidine-6-carboxamide hydrochloride], the IC50 came to 1.38 nM.

For the molecule `CC1(Cn2c(=O)c(C(=O)NC3CC3)c(O)n3ncc(/C=C/C(=O)N4C[C@H]5C[C@@H]4CO5)c23)CC1` [Synthesis Example 373], the IC50 was found to be 0.74 nM.

For `CC(C)Cn1c(=O)c(C(=O)NC2CC2)c(O)n2ncc(/C=C/C(=O)N3CCC(C(F)(F)F)C3)c12` (racemic) [compound 595, (E)-N-Cyclopropyl-7-hydroxy-4-isobutyl-5-oxo-3-(3-oxo-3-(3-(trifluoromethyl)pyrrolidin-1-yl)prop-1-en-1-yl)-4,5-dihydropyrazolo[1,5-a]pyrimidine-6-carboxamide (racemate)], the IC50 came out at 1.54 nM.

On to `Cc1nn2c(O)c(C(=O)NC3CC3)c(=O)n(CC(C)C)c2c1/C=C/C(=O)N1CCC[C@@H]1c1ccccn1` [Synthesis Example 635, (R,E)-N-Cyclopropyl-7-hydroxy-4-isobutyl-2-methyl-5-oxo-3-(3-oxo-3-(2-(pyridin-2-yl)pyrrolidin-1-yl)prop-1-en-1-yl)-4,5-dihydropyrazolo[1,5-a]pyrimidine-6-carboxamide], for which the IC50 is 1.08 nM.

With `CC(C)(C)Cn1c(=O)c(C(=O)NC2CC2)c(O)n2nc3c(c12)CCN3C(N)=O` [Synthesis Example 397, N6-Cyclopropyl-7-hydroxy-4-neopentyl-5-oxo-2,3,4,5-tetrahydro-1H-pyrrolo[2′,3′:3,4]pyrazolo[1,5-a]pyrimidine-1,6-dicarboxamide], the IC50 is 1.75 nM.

For `COC(C)(C)Cn1c(=O)c(C(=O)NC2CC2)c(O)n2ncc(/C=C/C(=O)N3CCOCC3)c12` [Synthesis Example 365, (E)-N-Cyclopropyl-7-hydroxy-4-(2-methoxy-2-methylpropyl)-3-(3-morpholino-3-oxoprop-1-en-1-yl)-5-oxo-4,5-dihydropyrazolo[1,5-a]pyrimidine-6-carboxamide], the IC50 was 0.65 nM.

In the case of `CC(C)(C)Cn1c(=O)c(C(=O)NC2CC2)c(O)n2nc(Nc3cnc(C(=O)NCC(F)F)cn3)cc12` [Synthesis Example 353, N-Cyclopropyl-2-((5-((2,2-difluoroethyl)carbamoyl)pyrazin-2-yl)amino)-7-hydroxy-4-neopentyl-5-oxo-4,5-dihydropyrazolo[1,5-a]pyrimidine-6-carboxamide], the IC50 stood at 0.82 nM.

In the case of `CC(C)(C)Cn1c(=O)c(C(=O)NC2CC2)c(O)n2nc3c(c12)COC(=O)N3` [Synthesis Example 400, N-Cyclopropyl-8-hydroxy-5-neopentyl-2,6-dioxo-1,2,5,6-tetrahydro-4H-pyrimido[1′,2′:1,5]pyrazolo[3,4-d][1,3]oxazine-7-carboxamide], the IC50 amounted to 0.7 nM.

Regarding `Cc1nn2c(O)c(C(=O)NC3CC3)c(=O)n(CC(C)C)c2c1/C=C/C(=O)N(C)Cc1ccccn1` [Synthesis Example 638, (E)-N-Cyclopropyl-7-hydroxy-4-isobutyl-2-methyl-3-(3-(methyl(pyridin-2-ylmethyl)amino)-3-oxoprop-1-en-1-yl)-5-oxo-4,5-dihydropyrazolo[1,5-a]pyrimidine-6-carboxamide], the IC50 amounted to 1.05 nM.

Regarding `Cc1ccc(CNC(=O)c2cnn3c(O)c(C(=O)NC4CC4)c(=O)n(CC(C)C)c23)nc1` [Synthesis Example 228, N6-Cyclopropyl-7-hydroxy-4-isobutyl-N3-((5-methylpyridin-2-yl)methyl)-5-oxo-4,5-dihydropyrazolo[1,5-a]pyrimidine-3,6-dicarboxamide], the IC50 was 1.02 nM.

As for `CC(C)Cn1c(=O)c(C(=O)NC2CC2)c(O)n2nc(N)c(/C=C/C3CCOCC3)c12` [Synthesis Example 434, (E)-2-Amino-N-cyclopropyl-7-hydroxy-4-isobutyl-5-oxo-3-(2-(tetrahydro-2H-pyran-4-yl)vinyl)-4,5-dihydropyrazolo[1,5-a]pyrimidine-6-carboxamide hydrochloride], the IC50 was 1.4 nM.

As to `CC(C)(C)Cn1c(=O)c(C(=O)NC2CC2)c(O)n2nc3ncccc3c12` [Synthesis Example 391, N-Cyclopropyl-4-hydroxy-1-neopentyl-2-oxo-1,2-dihydropyrido[2′,3′:3,4]pyrazolo[1,5-a]pyrimidine-3-carboxamide], the IC50 was determined as 0.92 nM.

For `CC1(Cn2c(=O)c(C(=O)NC3CC3)c(O)n3ncc(/C=C/C(=O)N4CCOCC4)c23)CCOCC1` [Synthesis Example 386, (E)-N-Cyclopropyl-7-hydroxy-4-((4-methyltetrahydro-2H-pyran-4-yl)methyl)-3-(3-morpholino-3-oxoprop-1-en-1-yl)-5-oxo-4,5-dihydropyrazolo[1,5-a]pyrimidine-6-carboxamide], the IC50 came to 0.6 nM.

In the case of `Cc1nn2c(O)c(C(=O)NC3CC3)c(=O)n(CC(C)C)c2c1/C=C/C(=O)N1CCc2cc(C#N)ccc21` [Synthesis Example 669, (E)-3-(3-(5-Cyanoindolin-1-yl)-3-oxoprop-1-en-1-yl)-N-cyclopropyl-7-hydroxy-4-isobutyl-2-methyl-5-oxo-4,5-dihydropyrazolo[1,5-a]pyrimidine-6-carboxamide], the IC50 was 1.84 nM.

In the case of `CC(C)Cn1c(=O)c(C(=O)NC2CC2)c(O)n2ncc(/C=C/C(=O)N3CC[C@@H](O)C3)c12` [compound 502, (R,E)-N-Cyclopropyl-7-hydroxy-3-(3-(3-hydroxypyrrolidin-1-yl)-3-oxoprop-1-en-1-yl)-4-isobutyl-5-oxo-4,5-dihydropyrazolo[1,5-a]pyrimidine-6-carboxamide], the IC50 was found to be 0.7 nM.

Consider `CCCc1cnc(Nc2cc3n(CC(C)(C)C)c(=O)c(C(=O)NC4CC4)c(O)n3n2)cn1` [Synthesis Example 336, N-Cyclopropyl-7-hydroxy-4-neopentyl-5-oxo-2-((5-propylpyrazin-2-yl)amino)-4,5-dihydropyrazolo[1,5-a]pyrimidine-6-carboxamide], for which the IC50 was found to be 7.13 nM.

On to `CC(C)Cn1c(=O)c(C(=O)NC2CC2)c(O)n2ncc(/C=C/C(=O)N3CCC[C@@H]3C)c12` [compound 458, (S,E)-N-Cyclopropyl-7-hydroxy-4-isobutyl-3-(3-(2-methylpyrrolidin-1-yl)-3-oxoprop-1-en-1-yl)-5-oxo-4,5-dihydropyrazolo[1,5-a]pyrimidine-6-carboxamide], for which the IC50 was 0.79 nM.

The same test, now with this note: sepiapterin absorbance, Table 41, read-out: concentration at 50% inhibition of human SPR (IC50).
As for `CC(C)Cn1c(=O)c(C(=O)NC2CC2)c(O)n2ncc(/C=C/C(=O)N3C[C@H](C)OC[C@H]3C)c12` [Synthesis Example 718, N-Cyclopropyl-3-((E)-3-((2S,5R)-2,5-dimethylmorpholino)-3-oxoprop-1-en-1-yl)-7-hydroxy-4-isobutyl-5-oxo-4,5-dihydropyrazolo[1,5-a]pyrimidine-6-carboxamide], the IC50 is 0.74 nM.

On to `CC(C)Cn1c(=O)c(C(=O)NC2CC2)c(O)n2ncc(/C=C/C(=O)N3C4CCC3CC(F)(F)C4)c12` [Synthesis Example 719, (E)-N-Cyclopropyl-3-(3-(3,3-difluoro-8-azabicyclo[3.2.1]octan-8-yl)-3-oxoprop-1-en-1-yl)-7-hydroxy-4-isobutyl-5-oxo-4,5-dihydropyrazolo[1,5-a]pyrimidine-6-carboxamide], for which the IC50 was found to be 0.77 nM.

As for `Cc1nn2c(O)c(C(=O)NC3CC3)c(=O)n(CC(C)C)c2c1/C=C/C(=O)N1CCc2ccncc21` [Synthesis Example 699, (E)-N-Cyclopropyl-3-(3-(2,3-dihydro-1H-pyrrolo[2,3-c]pyridin-1-yl)-3-oxoprop-1-en-1-yl)-7-hydroxy-4-isobutyl-2-methyl-5-oxo-4,5-dihydropyrazolo[1,5-a]pyrimidine-6-carboxamide], the IC50 was found to be 1.47 nM.
